ChEMBL document CHEMBL4828725 (Eur J Med Chem, 2021)
pIC50: −log10 of the molar value.

Columns and labels:
[1] = Inhibition of rice alpha-glucosidase using p-nitrophenyl glycoside as substrate assessed as release of p-nitrophenol measured by spectrometric assay; design: species or system Oryza sativa; conditions: read-out: IC50
[2] = Inhibition of rat intestinal maltase using maltose as substrate assessed as release of D-glucose measured by spectrometric assay
[3] = molecular target: T1, Sucrase-isomaltase, intestinal (Rattus norvegicus, UniProt P23739); test: Inhibition of rat intestinal sucrase using p-nitrophenyl glycoside as substrate assessed as release of p-nitrophenol measured by spectrometric assay; conditions: read-out: IC50
T1 sequence (P23739 1-1013 limits assumed): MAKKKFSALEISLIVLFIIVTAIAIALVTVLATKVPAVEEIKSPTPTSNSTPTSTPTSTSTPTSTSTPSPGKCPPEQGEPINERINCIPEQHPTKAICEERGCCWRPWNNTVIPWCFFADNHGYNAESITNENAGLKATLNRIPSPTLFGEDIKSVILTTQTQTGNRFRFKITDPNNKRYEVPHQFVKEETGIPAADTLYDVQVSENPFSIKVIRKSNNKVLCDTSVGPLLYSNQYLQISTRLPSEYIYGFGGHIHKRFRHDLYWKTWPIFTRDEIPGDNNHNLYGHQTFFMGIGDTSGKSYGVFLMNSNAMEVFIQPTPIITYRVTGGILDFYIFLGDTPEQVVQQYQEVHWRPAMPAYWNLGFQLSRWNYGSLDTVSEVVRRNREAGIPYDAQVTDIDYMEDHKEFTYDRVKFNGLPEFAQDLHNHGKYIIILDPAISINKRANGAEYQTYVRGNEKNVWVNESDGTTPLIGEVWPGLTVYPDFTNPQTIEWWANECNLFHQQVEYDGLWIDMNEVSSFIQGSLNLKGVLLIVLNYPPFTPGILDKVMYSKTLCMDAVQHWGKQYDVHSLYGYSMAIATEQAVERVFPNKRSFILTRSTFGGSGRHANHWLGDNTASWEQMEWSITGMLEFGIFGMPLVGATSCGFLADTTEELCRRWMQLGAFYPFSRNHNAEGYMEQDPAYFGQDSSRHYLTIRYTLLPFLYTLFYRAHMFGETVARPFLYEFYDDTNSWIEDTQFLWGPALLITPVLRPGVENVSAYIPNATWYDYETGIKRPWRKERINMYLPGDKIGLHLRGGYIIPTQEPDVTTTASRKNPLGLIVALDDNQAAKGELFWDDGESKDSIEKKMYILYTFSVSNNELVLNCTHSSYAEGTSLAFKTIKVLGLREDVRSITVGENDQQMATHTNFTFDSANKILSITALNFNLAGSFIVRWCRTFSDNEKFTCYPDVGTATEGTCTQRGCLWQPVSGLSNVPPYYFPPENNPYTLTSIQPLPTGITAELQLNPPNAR
T1 sequence (P23739 1014-1841 limits assumed): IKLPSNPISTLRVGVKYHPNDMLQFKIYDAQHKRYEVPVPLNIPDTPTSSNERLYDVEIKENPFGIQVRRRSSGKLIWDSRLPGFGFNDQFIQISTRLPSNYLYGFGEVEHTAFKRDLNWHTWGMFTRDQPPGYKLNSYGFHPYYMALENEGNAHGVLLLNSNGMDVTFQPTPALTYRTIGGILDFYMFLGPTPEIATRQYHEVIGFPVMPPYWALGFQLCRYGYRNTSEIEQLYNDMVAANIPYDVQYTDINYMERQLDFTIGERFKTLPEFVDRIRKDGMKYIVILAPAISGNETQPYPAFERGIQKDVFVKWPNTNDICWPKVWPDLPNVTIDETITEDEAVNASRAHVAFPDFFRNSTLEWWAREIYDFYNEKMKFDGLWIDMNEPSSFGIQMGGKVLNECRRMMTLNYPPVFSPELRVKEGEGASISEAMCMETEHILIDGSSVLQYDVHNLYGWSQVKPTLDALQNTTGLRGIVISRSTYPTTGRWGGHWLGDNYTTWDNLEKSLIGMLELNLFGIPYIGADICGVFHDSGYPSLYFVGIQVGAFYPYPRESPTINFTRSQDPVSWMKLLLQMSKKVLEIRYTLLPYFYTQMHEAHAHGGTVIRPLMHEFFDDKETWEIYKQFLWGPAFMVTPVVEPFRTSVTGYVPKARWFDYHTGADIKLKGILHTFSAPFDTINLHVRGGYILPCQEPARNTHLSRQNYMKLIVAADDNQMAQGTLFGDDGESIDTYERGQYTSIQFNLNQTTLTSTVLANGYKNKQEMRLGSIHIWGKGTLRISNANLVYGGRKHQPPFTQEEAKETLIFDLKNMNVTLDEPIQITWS

[4] = molecular target: T1, Sucrase-isomaltase, intestinal; test: Inhibition of rat intestinal isomaltase using p-nitrophenyl glycoside as substrate assessed as release of p-nitrophenol measured by spectrometric assay; conditions: read-out: IC50
[5] = Inhibition of almond beta-glucosidase using p-nitrophenyl glycoside as substrate assessed as release of p-nitrophenol measured by spectrometric assay; design: species or system Prunus dulcis
Prunus dulcis = test: Inhibition of almond beta-glucosidase using p-nitrophenyl glycoside as substrate assessed as release of p-nitrophenol at 1000 uM measured by spectrometric assay relative to control
[6] = Inhibition of bovine liver beta-glucosidase using p-nitrophenyl glycoside as substrate assessed as release of p-nitrophenol measured by spectrometric assay; design: species or system Bos taurus
Bos taurus [7] = organism: Bos taurus; test: Inhibition of bovine liver beta-glucosidase using p-nitrophenyl glycoside as substrate assessed as release of p-nitrophenol at 1000 uM measured by spectrometric assay relative to control; assay type: tissue-based
Alpha-galactosidase = Alpha-galactosidase (Coffea arabica, UniProt Q42656); test: Inhibition of coffee beans alpha-galactosidase using p-nitrophenyl glycoside as substrate assessed as release of p-nitrophenol measured by spectrometric assay; conditions: read-out: IC50
Chain of Alpha-galactosidase (Q42656 whole entry): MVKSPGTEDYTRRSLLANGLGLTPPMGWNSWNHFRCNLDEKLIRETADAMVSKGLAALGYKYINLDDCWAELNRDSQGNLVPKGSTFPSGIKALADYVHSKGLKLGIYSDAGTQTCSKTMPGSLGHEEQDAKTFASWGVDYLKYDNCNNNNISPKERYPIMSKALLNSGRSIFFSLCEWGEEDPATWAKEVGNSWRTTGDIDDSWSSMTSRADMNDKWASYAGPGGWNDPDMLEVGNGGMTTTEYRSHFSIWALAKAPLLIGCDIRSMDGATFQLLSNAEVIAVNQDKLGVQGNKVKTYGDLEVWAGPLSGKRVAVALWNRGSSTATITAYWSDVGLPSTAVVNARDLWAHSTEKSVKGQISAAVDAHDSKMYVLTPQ

[8] = Inhibition of bovine liver beta-galactosidase using p-nitrophenyl glycoside as substrate assessed as release of p-nitrophenol measured by spectrometric assay; assay type: tissue-based, Bos taurus
Bos taurus [9] = organism: Bos taurus; test: Inhibition of bovine liver beta-galactosidase using p-nitrophenyl glycoside as substrate assessed as release of p-nitrophenol at 1000 uM measured by spectrometric assay relative to control
[10] = Inhibition of jack bean alpha-mannosidase using p-nitrophenyl glycoside as substrate assessed as release of p-nitrophenol measured by spectrometric assay; design: species or system Canavalia ensiformis
[11] = molecular target: T2, Alpha-mannosidase (Canavalia ensiformis) (UniProt C0HJB3); test: Inhibition of jack bean alpha-mannosidase using p-nitrophenyl glycoside as substrate assessed as release of p-nitrophenol at 1000 uM measured by spectrometric assay relative to control
T2 sequence (whole entry): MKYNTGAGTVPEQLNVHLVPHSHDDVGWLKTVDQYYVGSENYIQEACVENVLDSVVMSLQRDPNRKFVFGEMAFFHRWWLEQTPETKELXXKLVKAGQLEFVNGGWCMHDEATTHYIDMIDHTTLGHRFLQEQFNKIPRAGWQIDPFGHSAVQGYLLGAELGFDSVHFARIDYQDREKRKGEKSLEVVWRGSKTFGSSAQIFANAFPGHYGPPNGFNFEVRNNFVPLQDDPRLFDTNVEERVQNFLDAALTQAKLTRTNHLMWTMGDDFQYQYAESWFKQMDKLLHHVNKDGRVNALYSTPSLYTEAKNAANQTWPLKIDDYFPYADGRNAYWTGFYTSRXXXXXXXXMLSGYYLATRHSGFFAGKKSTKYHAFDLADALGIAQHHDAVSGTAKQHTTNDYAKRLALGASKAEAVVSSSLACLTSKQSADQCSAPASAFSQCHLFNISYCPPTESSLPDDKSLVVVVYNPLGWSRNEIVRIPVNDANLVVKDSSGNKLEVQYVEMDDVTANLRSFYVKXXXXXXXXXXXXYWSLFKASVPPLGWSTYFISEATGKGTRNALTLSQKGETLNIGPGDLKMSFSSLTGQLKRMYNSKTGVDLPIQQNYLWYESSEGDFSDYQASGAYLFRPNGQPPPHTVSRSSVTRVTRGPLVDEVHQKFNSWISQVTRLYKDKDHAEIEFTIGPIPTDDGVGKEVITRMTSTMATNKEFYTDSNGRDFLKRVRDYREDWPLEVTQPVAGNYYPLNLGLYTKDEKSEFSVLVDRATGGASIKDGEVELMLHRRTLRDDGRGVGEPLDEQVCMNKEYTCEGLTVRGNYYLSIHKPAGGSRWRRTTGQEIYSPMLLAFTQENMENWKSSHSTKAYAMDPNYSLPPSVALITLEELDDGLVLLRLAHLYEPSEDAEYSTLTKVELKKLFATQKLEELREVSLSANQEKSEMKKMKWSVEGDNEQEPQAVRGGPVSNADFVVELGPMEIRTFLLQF

[12] = Inhibition of snail beta-mannosidase using p-nitrophenyl glycoside as substrate assessed as release of p-nitrophenol measured by spectrometric assay; design: species or system Helix pomatia
Helix pomatia = test: Inhibition of snail beta-mannosidase using p-nitrophenyl glycoside as substrate assessed as release of p-nitrophenol at 1000 uM measured by spectrometric assay relative to control
[13] = molecular target: T3, Tissue alpha-L-fucosidase (Bos taurus, UniProt Q2KIM0); test: Inhibition of bovine kidney alpha-L-fucosidase using p-nitrophenyl glycoside as substrate assessed as release of p-nitrophenol measured by spectrometric assay
T3 sequence (Q2KIM0 whole entry): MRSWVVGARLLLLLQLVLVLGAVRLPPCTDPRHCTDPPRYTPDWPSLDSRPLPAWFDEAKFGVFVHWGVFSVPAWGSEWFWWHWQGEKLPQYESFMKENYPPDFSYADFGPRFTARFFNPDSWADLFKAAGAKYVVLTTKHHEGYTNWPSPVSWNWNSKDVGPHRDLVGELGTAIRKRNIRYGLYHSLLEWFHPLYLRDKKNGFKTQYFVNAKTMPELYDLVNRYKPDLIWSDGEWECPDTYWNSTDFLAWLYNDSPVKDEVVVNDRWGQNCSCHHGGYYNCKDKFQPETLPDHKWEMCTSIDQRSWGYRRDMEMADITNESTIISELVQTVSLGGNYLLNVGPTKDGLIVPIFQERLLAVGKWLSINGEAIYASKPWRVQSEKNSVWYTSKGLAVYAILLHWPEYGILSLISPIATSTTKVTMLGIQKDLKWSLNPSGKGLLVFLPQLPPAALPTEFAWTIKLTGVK

[14] = molecular target: T4, Tissue alpha-L-fucosidase (Bos taurus) (UniProt Q2KIM0); test: Inhibition of bovine kidney alpha-L-fucosidase using p-nitrophenyl glycoside as substrate assessed as release of p-nitrophenol at 1000 uM measured by spectrometric assay relative to control; assay type: tissue-based
T4 sequence (whole entry): T3 sequence (Q2KIM0 whole entry)

[15] = Inhibition of porcine kidney alpha-trehalase using p-nitrophenyl glycoside as substrate assessed as release of p-nitrophenol measured by spectrometric assay; design: species or system Sus scrofa
Sus scrofa = organism: Sus scrofa; test: Inhibition of porcine kidney alpha-trehalase using p-nitrophenyl glycoside as substrate assessed as release of p-nitrophenol at 1000 uM measured by spectrometric assay relative to control
[16] = Inhibition of Aspergillus niger amyloglucosidase using p-nitrophenyl glycoside as substrate assessed as release of p-nitrophenol measured by spectrometric assay
Aspergillus niger = test: Inhibition of Aspergillus niger amyloglucosidase using p-nitrophenyl glycoside as substrate assessed as release of p-nitrophenol at 1000 uM measured by spectrometric assay relative to control
[17] = Inhibition of Penicillium decumbens alpha-L-rhamnosidase using p-nitrophenyl glycoside as substrate assessed as release of p-nitrophenol measured by spectrometric assay
Penicillium decumbens = test: Inhibition of Penicillium decumbens alpha-L-rhamnosidase using p-nitrophenyl glycoside as substrate assessed as release of p-nitrophenol at 1000 uM measured by spectrometric assay relative to control
Beta-glucuronidase = Beta-glucuronidase (Escherichia coli (strain K12), UniProt P05804); test: Inhibition of Escherichia coli beta-glucuronidase using p-nitrophenyl glycoside as substrate assessed as release of p-nitrophenol measured by spectrometric assay
Chain of Beta-glucuronidase (P05804 whole entry): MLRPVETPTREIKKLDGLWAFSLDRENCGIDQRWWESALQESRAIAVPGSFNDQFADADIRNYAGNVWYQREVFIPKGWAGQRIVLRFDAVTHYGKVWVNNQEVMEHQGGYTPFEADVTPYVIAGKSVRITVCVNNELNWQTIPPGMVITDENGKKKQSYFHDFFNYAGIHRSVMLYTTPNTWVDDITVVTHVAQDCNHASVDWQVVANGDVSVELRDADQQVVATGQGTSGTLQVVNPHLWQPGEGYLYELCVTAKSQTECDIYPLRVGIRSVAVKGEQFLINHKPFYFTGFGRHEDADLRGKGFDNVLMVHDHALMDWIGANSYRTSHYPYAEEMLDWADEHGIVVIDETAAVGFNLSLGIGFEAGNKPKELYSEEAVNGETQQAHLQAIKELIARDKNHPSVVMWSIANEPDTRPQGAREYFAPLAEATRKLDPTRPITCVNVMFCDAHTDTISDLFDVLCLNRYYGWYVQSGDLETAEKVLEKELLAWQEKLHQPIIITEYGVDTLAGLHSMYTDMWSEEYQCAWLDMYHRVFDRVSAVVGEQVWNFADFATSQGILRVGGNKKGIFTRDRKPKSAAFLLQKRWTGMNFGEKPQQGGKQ

[18] = molecular target: Beta-glucuronidase (Escherichia coli (strain K12)) (UniProt P05804); test: Inhibition of Escherichia coli beta-glucuronidase using p-nitrophenyl glycoside as substrate assessed as release of p-nitrophenol at 1000 uM measured by spectrometric assay relative to control
Chain of Beta-glucuronidase (Escherichia coli (strain K12)) (P05804 whole entry, looked up): as the sequence (P05804 whole entry) above

SMILES | pIC50 [1] | pIC50 [2] | pIC50 [3] | pIC50 [4] | IC50 [5] | inhibition (Prunus dulcis) [%] | IC50 [6] | inhibition (Bos taurus [7]) [%] | pIC50 (Alpha-galactosidase) | IC50 [8] | inhibition (Bos taurus [9]) [%] | IC50 [10] | inhibition [11] [%] | IC50 [12] | inhibition (Helix pomatia) [%] | IC50 [13] | inhibition [14] [%] | IC50 [15] | inhibition (Sus scrofa) [%] | IC50 [16] | also measured
CCCCCCCC[C@]1(CO)NC[C@H](O)[C@@H](O)[C@@H]1O.Cl | 7.54 | 7.72 | 6.92 | 6.47 | Not Active | 15.7 | Not Active | 14.3 | 4.01 | Not Active | 35.2 | Not Active | 4.6 | Not Active | 0.5 | Not Active | 6.6 | Not Active | 23 | Not Active | inhibition (Aspergillus niger): 5.9%; IC50 [17]: Not Active; inhibition (Penicillium decumbens): 5.7%; IC50 (Beta-glucuronidase): Not Active; inhibition [18]: 12%
CCCCC[C@]1(CO)NC[C@H](O)[C@@H](O)[C@@H]1O.Cl | 7.17 | 7.64 | 6.64 | 6.15 | Not Active | 18.8 | Not Active | 8 | 4.08 | Not Active | 16.1 | Not Active | 5.5 | Not Active | 4 | Not Active | 12.4 | Not Active | 10.6 | Not Active | inhibition (Aspergillus niger): 0.83%; IC50 [17]: Not Active; inhibition (Penicillium decumbens): 0%; IC50 (Beta-glucuronidase): Not Active; inhibition [18]: 10.8%
CCCCCCCCCCCC[C@]1(CO)NC[C@H](O)[C@@H](O)[C@@H]1O.Cl | 7.62 | 7.15 | 5.92 | 5.11 | Not Active | 10 | Not Active | 25 | 5.00 | Not Active | 48.4 | Not Active | 7.9 | Not Active | 1.5 | Not Active | 16 | Not Active | 4.8 | Not Active | inhibition (Aspergillus niger): 10.7%; IC50 [17]: Not Active; inhibition (Penicillium decumbens): 0.3%; IC50 (Beta-glucuronidase): Not Active; inhibition [18]: 16.5%
